Measured values taken from patent publication US8183248B2, “Substituted pyrrolo[2,3-d]pyrimidines and compositions as protein kinase inhibitors” (IRM LLC, priority 2005, dated 2012).

Columns and labels:
[1] = target: T1, M351T Bcr-abl (Ba/F3 cells) (Homo sapiens, UniProt P00519, M351T); assay: Proliferation of Ba/F3 cells expressing M351T Bcr-abl; format: cell-based
T1 construct: expressed in transfected cells; host or cells: Ba/F3 (murine pro-B cells); the other entry of the earlier key: BCR (P11274, Breakpoint cluster region protein)
Protocol: (§1) 32D-p210 cells are plated into 96 well TC plates at a density of 15,000 cells per well. 50 μL of two fold serial dilutions of the test compound (Cmax is 40 μM) are added to each well (STI571 is included as a positive control). After incubating the cells for 48 hours at 37° C., 5% CO2, 15 μL of MTT (Promega) is added to each well and the cells are incubated for an additional 5 hours. The optical density at 570 nm is quantified spectrophotometrically and IC50 values, the concentration of compound required for 50% inhibition, determined from a dose response curve.
(§2) Compounds of the invention are tested for their antiproliferative effect on Ba/F3 cells expressing either wild type or the mutant forms of BCR-Abl (G250E, E255V, T315I, F317L, M351T) that confers resistance or diminished sensitivity to STI571. The antiproliferative effect of these compounds on the mutant-BCR-Abl expressing cells and on the non transformed cells were tested at 10, 3.3, 1.1 and 0.37 μM as described above (in media lacking IL3). The IC50 values of the compounds lacking toxicity on the untransformed cells were determined from the dose response curves obtained as describe above.

[2] = target: T2, FGFR3 (Homo sapiens, UniProt P22607); assay: FGFR3 (Enzymatic Assay); format: biochemical
T2 construct: if the value comes from the Ba/F3-TEL-FGFR3 test; If it comes from the purified enzyme, only the vendor's tag
T2 sequence (P22607 whole entry): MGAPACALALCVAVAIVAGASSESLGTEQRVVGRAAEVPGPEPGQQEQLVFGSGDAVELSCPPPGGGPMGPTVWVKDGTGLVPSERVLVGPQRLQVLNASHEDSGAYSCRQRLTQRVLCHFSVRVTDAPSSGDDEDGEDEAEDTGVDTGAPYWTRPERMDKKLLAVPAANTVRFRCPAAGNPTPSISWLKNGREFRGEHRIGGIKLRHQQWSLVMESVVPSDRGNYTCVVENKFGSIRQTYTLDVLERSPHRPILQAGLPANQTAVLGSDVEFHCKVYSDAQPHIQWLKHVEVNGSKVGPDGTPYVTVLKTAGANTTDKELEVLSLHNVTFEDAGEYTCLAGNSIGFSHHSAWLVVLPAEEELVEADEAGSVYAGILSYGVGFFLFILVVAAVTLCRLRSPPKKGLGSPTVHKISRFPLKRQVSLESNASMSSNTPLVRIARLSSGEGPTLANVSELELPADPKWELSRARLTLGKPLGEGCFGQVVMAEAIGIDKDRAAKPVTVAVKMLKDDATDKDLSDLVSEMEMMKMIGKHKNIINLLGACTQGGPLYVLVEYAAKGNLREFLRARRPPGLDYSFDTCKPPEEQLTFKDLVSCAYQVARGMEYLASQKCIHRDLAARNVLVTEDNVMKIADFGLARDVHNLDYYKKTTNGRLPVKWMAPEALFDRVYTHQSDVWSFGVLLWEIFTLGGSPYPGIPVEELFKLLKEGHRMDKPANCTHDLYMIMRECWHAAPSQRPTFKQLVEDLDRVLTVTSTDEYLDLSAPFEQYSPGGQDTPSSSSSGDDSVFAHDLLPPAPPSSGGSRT
Protocol: Kinase activity assay with purified FGFR3 (Upstate) is carried out in a final volume of 10 μL containing 0.25 μg/mL of enzyme in kinase buffer (30 mM Tris-HCl pH7.5, 15 mM MgCl2, 4.5 mM MnCl2, 15 μM Na3VO4 and 50 μg/mL BSA), and substrates (5 μg/mL biotin-poly-EY(Glu, Tyr) (CIS-US, Inc.) and 3 μM ATP). Two solutions are made: the first solution of 5 μl contains the FGFR3 enzyme in kinase buffer was first dispensed into 384-format ProxiPlate® (Perkin-Elmer) followed by adding […] of compounds dissolved in DMSO, then […] of second solution contains the substrate (poly-EY) and ATP in kinase buffer was added to each wells. The reactions are incubated at room temperature for one hour, stopped by adding 10 μL of HTRF detection mixture, which contains 30 mM Tris-HCl pH7.5, 0.5 M KF, 50 mM ETDA, 0.2 mg/mL BSA, 15 μg/mL streptavidin-XL665 (CIS-US, Inc.) and 150 ng/mL cryptate conjugated anti-phosphotyrosine antibody (CIS-US, Inc.). After one hour of room temperature incubation to allow for streptavidin-biotin interaction, time resolved florescent signals are read on Analyst GT (Molecular Devices Corp.). IC50 values are calculated by […] analysis of the percentage inhibition of each compound at 12 concentrations (1:3 dilution from 50 μM to 0.28 nM).

[3] = target: B-RAF (Homo sapiens, UniProt P15056); assay: b-Raf Enzymatic Assay; format: biochemical
Chain of B-RAF (P15056 whole entry): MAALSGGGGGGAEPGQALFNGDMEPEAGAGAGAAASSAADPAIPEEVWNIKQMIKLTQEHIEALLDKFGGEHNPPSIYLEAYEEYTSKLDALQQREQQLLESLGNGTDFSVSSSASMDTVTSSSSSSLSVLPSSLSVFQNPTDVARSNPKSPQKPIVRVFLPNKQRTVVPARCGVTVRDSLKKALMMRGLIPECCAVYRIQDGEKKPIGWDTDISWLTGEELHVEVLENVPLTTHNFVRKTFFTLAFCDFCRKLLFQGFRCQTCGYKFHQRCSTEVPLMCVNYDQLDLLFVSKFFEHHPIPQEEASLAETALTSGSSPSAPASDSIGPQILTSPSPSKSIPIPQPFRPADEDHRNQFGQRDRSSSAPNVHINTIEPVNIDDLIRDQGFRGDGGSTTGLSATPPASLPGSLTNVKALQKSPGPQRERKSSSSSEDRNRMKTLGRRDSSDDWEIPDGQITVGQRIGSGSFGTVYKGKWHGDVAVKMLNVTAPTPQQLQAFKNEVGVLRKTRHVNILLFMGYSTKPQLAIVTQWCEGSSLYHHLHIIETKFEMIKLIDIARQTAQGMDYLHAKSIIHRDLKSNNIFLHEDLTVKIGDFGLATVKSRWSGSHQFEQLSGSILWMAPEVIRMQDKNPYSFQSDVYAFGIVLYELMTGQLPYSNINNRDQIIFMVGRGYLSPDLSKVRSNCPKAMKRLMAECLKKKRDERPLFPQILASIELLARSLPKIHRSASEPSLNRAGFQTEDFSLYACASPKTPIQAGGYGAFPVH
Protocol: Compounds of the invention are tested for their ability to inhibit the activity of b-Raf. The assay is carried out in 384-well MaxiSorp plates (NUNC) with black walls and clear bottom. The substrate, IκBα is diluted in DPBS (1:750) and 15 μl is added to each well. The plates are incubated at 4° C. overnight and washed 3 times with TBST (25 mM Tris, pH 8.0, 150 mM NaCl and 0.05% Tween-20) using the EMBLA plate washer. Plates are blocked by Superblock (15 μl/well) for 3 hours at room temperature, washed 3 times with TBST and pat-dried. Assay buffer containing 20 μM ATP (10 μl) is added to each well followed by 100 nl or 500 nl of compound. B-Raf is diluted in the assay buffer (1 μl into 25 μl) and 10 μl of diluted b-Raf is added to each well (0.4 μg/well). The plates are incubated at room temperature for 2.5 hours. The kinase reaction is stopped by washing the plates 6 times with TBST. Phosph-IκBα (Ser32/36) antibody is diluted in Superblock (1:10,000) and 15 μl is added to each well. The plates are incubated at 4° C. overnight and washed 6 times with TBST. AP-conjugated goat-anti-mouse IgG is diluted in Superblock (1:1,500) and 15 μl is added to each well. Plates are incubated at room temperature for 1 hour and washed 6 times with TBST. […] Plates are read on Acquest or Analyst GT using a Fluorescence Intensity Program (Excitation 455 nm, Emission 580 nm).

[4] = target: T3, wild type Bcr-abl (Ba/F3 cells) (Homo sapiens, UniProt P00519); assay: Proliferation of Ba/F3 cells expressing wild type Bcr-abl; format: cell-based
T3 construct: expressed in transfected cells; host or cells: Ba/F3 (murine pro-B cells); the other entry of the earlier key: BCR (P11274, Breakpoint cluster region protein)
Protocol: as §1, §2

[5] = target: T4, T315I Bcr-abl (Ba/F3 cells) (Homo sapiens, UniProt P00519, T315I); assay: Proliferation of Ba/F3 cells expressing T315I Bcr-abl; format: cell-based
T4 construct: expressed in transfected cells; host or cells: Ba/F3 (murine pro-B cells); the other entry of the earlier key: BCR (P11274, Breakpoint cluster region protein)
Protocol: as §1, §2

[6] = target: FLT-3 (Homo sapiens, UniProt P36888, cells depend on it, form not given); assay: FLT3 (Cellular Assay), Ba/F3-FLT3-ITD proliferation; format: cell-based; conditions: read-out: IC50 for FLT-3
[7] = target: T5, F317L Bcr-abl (Ba/F3 cells) (Homo sapiens, UniProt P00519, F317L); assay: Proliferation of Ba/F3 cells expressing F317L Bcr-abl; format: cell-based
T5 construct: expressed in transfected cells; host or cells: Ba/F3 (murine pro-B cells); the other entry of the earlier key: BCR (P11274, Breakpoint cluster region protein)
Protocol: as §1, §2

[8] = target: T6, E255V Bcr-abl (Ba/F3 cells) (Homo sapiens, UniProt P00519, E255V); assay: Proliferation of Ba/F3 cells expressing E255V Bcr-abl; format: cell-based
T6 construct: expressed in transfected cells; host or cells: Ba/F3 (murine pro-B cells); the other entry of the earlier key: BCR (P11274, Breakpoint cluster region protein)
Protocol: as §1, §2

[9] = target: T7, G250E Bcr-abl (Ba/F3 cells) (Homo sapiens, UniProt P00519, G250E); assay: Proliferation of Ba/F3 cells expressing G250E Bcr-abl; format: cell-based
T7 construct: expressed in transfected cells; host or cells: Ba/F3 (murine pro-B cells); the other entry of the earlier key: BCR (P11274, Breakpoint cluster region protein)
Protocol: as §1, §2

IC50 [1]: < 5 nM | IC50 [2]: 36 nM | IC50 [3]: 100 nM | IC50 [4]: < 5 nM | IC50 [5]: < 5 nM | GI50 [6]: 15 nM | IC50 [7]: < 5 nM | IC50 [8]: < 5 nM | IC50 [9]: < 5 nM
Structure (SMILES): CCN1CCN(Cc2ccc(NC(=O)c3ccc(C)c(NC(=O)N(C)c4ncnc5[nH]ccc45)c3)cc2C(F)(F)F)CC1 [Example 4, N-[4-(4-Ethyl-piperazin-1-ylmethyl)-3-trifluoromethyl-phenyl]-4-methyl-3-[3-methyl-3-(7H-pyrrolo[2,3-d]pyrimidin-4-yl)-ureido]-benzamide]
